According to US6384051B1, “Method of treating or inhibiting colonic polyps” (American Cyanamid Company, priority 2000, dated 2002):
Where a name gives a salt, the structure may show the parent alone.

Row | Compound | melting point
1 | CC(C)N(C)CC#CC(=O)Nc1ccc2ncc(C#N)c(Nc3cccc(Br)c3)c2c1 [Example 191, N-[4-[(3-Bromophenyl)amino]-3-cyano-6-quinolinyl]-4-(N-isopropyl-N-methylamino)-2-butynamide] | 124 to 126 °C
2 | COc1cc2c(Nc3ccccc3SC)c(C#N)cnc2cc1OCCCN1CCOCC1 [Example 314, 6-Methoxy-4-(2-methylsulfanyl-phenylamino)-7-(3-morpholin-4-yl-propoxy)-quinoline-3-carbonitrile] | 179 to 180 °C
3 | COc1cc2ncc(C#N)c(Nc3cccc(C(=O)O)c3C)c2cc1OC [Example 368, 3-(3-Cyano-6,7-dimethoxy-quinolin-4-ylamino) -2-methyl-benzoic acid] | 242 to 245 °C
4 | COc1cc2c(Nc3cccc(Br)c3)c(C#N)cnc2c(OC)c1OC [Example 241, 4-(3-Bromo-phenylamino)-6,7,8-trimethoxy-quinoline-3-carbonitrile] | 211 to 213 °C
5 | CCN(CC)CC#CC(=O)Nc1ccc2ncc(C#N)c(Nc3cccc(Br)c3)c2c1 [Example 187, N-[4-[(3-Bromophenyl)amino]-3-cyano-6-quinolinyl]-4-diethylamino-2-butynamide] | 133 to 135 °C
6 | N#Cc1cnc2ccc(NC(=O)C#CCO)cc2c1Nc1cccc(Br)c1 [Example 57, N-[4-[(3-Bromophenyl)amino]-3-cyano-6-quinolinyl]-4-hydroxy-2-butynamide] | 253 to 254 °C (dec.)
7 | CCN1CCN(CC#CC(=O)Nc2ccc3ncc(C#N)c(Nc4cccc(Br)c4)c3c2)CC1 [Example 188, N-[4-[(3-Bromophenyl)amino]-3-cyano-6-quinolinyl]-4-(N-ethylpiperazino)-2-butynamide] | 161 °C (dec.)
8 | COc1cc2ncc(C#N)c(Oc3cccc(Br)c3)c2cc1OC [Example 49, 4-(3-Bromophenoxy)-6,7-dimethoxy-3-quinolinecarbonitrile] | 187 to 190 °C
9 | COc1cc2ncc(C#N)c(Nc3ccccc3CCO)c2cc1OC [Example 301, 4-[2-(2-Hydroxy-ethyl)-phenylamino]-6,7-dimethoxy-quinoline-3-carbonitrile] | 159 to 162 °C
10 | COc1ccc(OC)c2c(Nc3cccc(Br)c3)c(C#N)cnc12 [Example 240, 4-(3-Bromo-phenylamino)-5,8-dimethoxy-quinoline-3-carbonitrile] | 72 to 74 °C
11 | COc1cccc2c(Nc3ccc(Cl)cc3F)c(C#N)cnc12 [Example 275, 4-(4-Chloro-2-fluoro-phenylamino)-8-methoxy-quinoline-3-carbonitrile] | 127 °C (dec.)
12 | COc1cc2c(Nc3ccc(Cl)cc3F)c(C#N)cnc2c(OC)c1OC [Example 234, 4-(4-Chloro-2-fluoro-phenylamino)-6,7,8-trimethoxy-quinoline-3-carbonitrile] | 166 to 168 °C
13 | COc1cc2c(Nc3ccc(Cl)cc3F)c(C#N)cnc2cc1OCc1ccccc1 (as salt: hydrochloride) [Example 322, 7-Benzyloxy-4-(4-chloro-2-fluoro-phenylamino)-6-methoxy-quinoline-3-carbonitrile] | 241 to 243 °C
14 | COc1cc2c(Nc3cccc(Br)c3)c(C#N)cnc2cc1OCCCN1CCOCC1 [Example 313, 4-(3-Bromo-phenylamino)-6-methoxy-7-(3-morpholin-4-yl-propoxy)-quinoline-3-carbonitrile] | 115 to 118 °C
15 | COc1cc2c(Nc3cccc(N(C)C)c3)c(C#N)cnc2c(OC)c1OC [Example 232, 4-(3-Dimethylamino-phenylamino)-6,7,8-trimethoxy-quinoline-3-carbonitrile] | 142 to 144 °C

Next, values leading:

Row | melting point | Compound
16 | > 131 °C (dec.) | COc1ccc(Nc2c(C#N)cnc3cc(OC)c(OC)cc23)c(C)c1 [Example 367, 6,7-Dimethoxy-4-(4-methoxy-2-methyl-phenylamino)-quinoline-3-carbonitrile]
17 | 198 to 202 °C (dec.) | COCC#CC(=O)Nc1ccc2ncc(C#N)c(Nc3cccc(Br)c3)c2c1 [Example 60, N-[4-[(3-Bromophenyl)amino]-3-cyano-6-quinolinyl]-4-methoxy-2-butynamide]
18 | > 250 °C | COc1cc2ncc(C#N)c(Nc3ccc(O)cc3O)c2cc1OC [Example 300, 4-(2,4-Dihydroxy-phenylamino)-6,7-dimethoxy-quinoline-3-carbonitrile]
19 | 246 to 249 °C | COc1cc2ncc(C#N)c(Nc3cccc(N(C)C)c3)c2cc1OC [Example 366, 4-(3-Dimethylamino-phenylamino)-6,7-dimethoxy-quinoline-3-carbonitrile]
20 | 255 to 257 °C | COc1cc2ncc(C#N)c(Nc3cccc(O)c3C)c2cc1OC [Example 245, 4-(3-Hydroxy-2-methyl-phenylamino)-6,7-dimethoxy-quinoline-3-carbonitrile]
21 | 250 to 255 °C | COc1cc2ncc(C#N)c(Nc3cccc(CO)c3)c2cc1OC [Example 48, 4-[(3-(hydroxymethyl)phenyl)amino]-6,7-dimethoxy-3-quinolinecarbonitrile]
22 | > 250 °C | COc1cc2ncc(C#N)c(Nc3ccc(C(N)=O)cc3)c2cc1OC [Example 289, 4-(3-Cyano-6,7-dimethoxy-quinolin-4-ylamino)-benzamide]
23 | 197 °C (dec.) | COCC#CC(=O)Nc1ccc2ncc(C#N)c(Nc3cccc(Br)c3)c2c1 [Example 330, N-[4-[(3-Bromophenyl)amino]-3-cyano-6-quinolinyl]-4-methoxy-2-butynamide]
24 | > 250 °C | COc1ccc2ncc(C#N)c(Nc3ccc(Cl)cc3F)c2c1 [Example 283, 4-(4-Chloro-2-fluoro-phenylamino)-6-methoxy-quinoline-3-carbonitrile]
25 | 123 to 125 °C | COc1cc2ncc(C#N)c(Nc3cccc(CO)c3C)c2cc1OC [Example 333, 4-(3-Hydroxymethyl-2-methylphenylamino)-6,7-dimethoxyquinoline-3-carbonitrile]
26 | > 250 °C | COc1ccc2c(Nc3ccc(C)c(O)c3)c(C#N)cnc2c1 [Example 281, 4-(3-Hydroxy-4-methyl-phenylamino)-7-methoxy-quinoline-3-carbonitrile]
27 | 198 to 200 °C | COc1cc2ncc(C#N)c(Nc3cc(C)ccc3O)c2cc1OC [Example 295, 4-(2-Hydroxy-5-methyl-phenylamino)-6,7-dimethoxy-quinoline-3-carbonitrile]
28 | > 250 °C | COc1cc2ncc(C#N)c(Nc3ccc(O)cc3Cl)c2cc1OC [Example 296, 4-(2-Chloro-4-hydroxy-phenylamino)-6,7-dimethoxy-quinoline-3-carbonitrile]
29 | 200 °C (dec.) | COc1cc2c(Nc3ccc(C)c(O)c3)c(C#N)cnc2c(OC)c1OC [Example 233, 4-(3-Hydroxy-4-methyl-phenylamino)-6,7,8-trimethoxy-quinoline-3-carbonitrile]
30 | 222 to 225 °C | COc1cccc2c(Nc3cccc(N(C)C)c3)c(C#N)cnc12 [Example 277, 4-(3-Dimethylamino-phenylamino)-8-methoxy-quinoline-3-carbonitrile]
31 | 210 to 212 °C | COc1cccc2c(Nc3cccc(Br)c3)c(C#N)cnc12 [Example 274, 4-[(3-Bromophenyl)amino]-8-methoxy-3-quinolinecarbonitrile]
